From ChEMBL document CHEMBL5608215, “Development of amphipathic derivatives of thymol and carvacrol as potent broad-spectrum antibacterial agents” (Eur J Med Chem, 2024)
Active and inactive are the calls of the source. The rule behind the calls is not given here.

How the values were obtained:
Pseudomonas aeruginosa [1] = test: Anti-biofilm activity against Pseudomonas aeruginosa ATCC27853 assessed as biofilm formation rate at 8 times MIC incubated for 48 hrs by crystal violet staining based analysis relative to control; type: functional
Staphylococcus aureus [2] = test: Antibacterial activity against methicillin-resistant Staphylococcus aureus 21-5 by CLSI based serial dilution method; type: functional
Enterococcus = test: Antibacterial activity against vancomycin-resistant Enterococcus ATCC51299 by CLSI based serial dilution method; type: functional
Staphylococcus aureus [3] = test: Bactericidal activity against Staphylococcus aureus ATCC29213 assessed as log reduction in bacterial growth at 8 times MIC incubated for 24 hrs by time-kill assay; type: functional
Staphylococcus aureus [4] = test: Bactericidal activity against Staphylococcus aureus ATCC29213 at 8 times MIC incubated for 24 hrs by time-kill assay relative to control; type: functional
Enterococcus faecalis = test: Antibacterial activity against Enterococcus faecalis ATCC29212 by CLSI based serial dilution method; type: functional
Escherichia coli [5] = test: Bactericidal activity against Escherichia coli ATCC25922 at 8 times MIC incubated for 12 hrs by time-kill assay relative to control; type: functional
Pseudomonas aeruginosa [6] = test: Antibacterial activity against Pseudomonas aeruginosa ATCC27853 by CLSI based serial dilution method; type: functional
Escherichia coli [7] = test: Bactericidal activity against Escherichia coli ATCC25922 assessed as inhibition of bacterial regrowth at 8 times MIC incubated for 24 hrs by time-kill assay; type: functional, organism-based
Escherichia coli [8] = test: Antibacterial activity against Escherichia coli ATCC25922 by CLSI based serial dilution method; type: functional
Staphylococcus aureus [9] = test: Inhibition of antibiotic-resistance in Staphylococcus aureus ATCC29213 at 0.5 times of MIC incubated for 20 days; type: functional; settings: time 20.0 day
Escherichia coli [10] = test: Bactericidal activity against Escherichia coli ATCC25922 at MIC incubated for 24 hrs by time-kill assay; type: functional, organism-based
Staphylococcus aureus [11] = test: Bactericidal activity against Staphylococcus aureus ATCC29213 at MIC incubated for 24 hrs by time-kill assay; type: functional, organism-based
Staphylococcus aureus [12] = test: Antibacterial activity against Staphylococcus aureus ATCC29213 by CLSI based serial dilution method; type: functional
Staphylococcus aureus [13] = test: Bactericidal activity against Staphylococcus aureus ATCC29213 incubated upto 24 hrs by time-kill assay; type: functional, organism-based
Escherichia coli [14] = test: Bactericidal activity against Escherichia coli ATCC25922 incubated upto 24 hrs by time-kill assay; type: functional, organism-based

| SMILES | Activity (Pseudomonas aeruginosa [1]) [%] | MIC (Staphylococcus aureus [2]) [µg/mL] | MIC (Enterococcus) [µg/mL] | Activity (Staphylococcus aureus [3]) [log10CFU/ml] | Activity (Staphylococcus aureus [4]) [%] | MIC (Enterococcus faecalis) [µg/mL] | Activity (Escherichia coli [5]) [%] | MIC (Pseudomonas aeruginosa [6]) [µg/mL] | inhibition (Escherichia coli [7]) | MIC (Escherichia coli [8]) [µg/mL] | inhibition (Staphylococcus aureus [9]) | Activity (Escherichia coli [10]) | Activity (Staphylococcus aureus [11]) | MIC (Staphylococcus aureus [12]) [µg/mL] | Activity (Staphylococcus aureus [13]) | Activity (Escherichia coli [14]) |
| --- | --- | --- | --- | --- | --- | --- | --- | --- | --- | --- | --- | --- | --- | --- | --- | --- |
| CCCCCCN(CCCCCC)C(=O)C[N+](C)(C)CCCCOc1cc(C(C)C)ccc1C.[Br-] | 55.3 | 8 | 0.5 | >3 | >99.9 | 0.125 | 100 | 8 | Active | 4 | Active | inactive | inactive | 0.5 | Dose-Dependent Effect | Dose-Dependent Effect |
| CCCCNC(=O)C[N+](C)(C)CCCOc1cc(C(C)C)ccc1C.[Br-] |  | 64 | 64 |  |  | 32 |  | > 128 |  | 64 |  |  |  | 32 |  |  |
| CCCCCCCNC(=O)C[N+](C)(C)CCCCOc1cc(C(C)C)ccc1C.[Br-] |  | 16 | 4 |  |  | 2 |  | 16 |  | 4 |  |  |  | 1 |  |  |
| Cc1ccc(C(C)C)c(OCCCC[N+](C)(C)CC(=O)N2CCOCC2)c1.[Br-] |  | > 128 | > 128 |  |  | > 128 |  | > 128 |  | > 128 |  |  |  | > 128 |  |  |
| CCCN(CCC)C(=O)C[N+](C)(C)CCCCCOc1cc(C)ccc1C(C)C.[Br-] |  | 8 | 16 |  |  | 8 |  | > 128 |  | 64 |  |  |  | 8 |  |  |
| CCCN(CCC)C(=O)C[N+](C)(C)CCCOc1cc(C(C)C)ccc1C.[Br-] |  | 64 | 128 |  |  | 32 |  | > 128 |  | 128 |  |  |  | 32 |  |  |
| CCCN(CCC)C(=O)C[N+](C)(C)CCCOc1cc(C)ccc1C(C)C.[Br-] |  | 16 | 128 |  |  | 32 |  | > 128 |  | 128 |  |  |  | 16 |  |  |
| CCCN(CCC)C(=O)C[N+](C)(C)CCCCOc1cc(C(C)C)ccc1C.[Br-] |  | 32 | 64 |  |  | 32 |  | > 128 |  | 128 |  |  |  | 16 |  |  |
| CCCCCNC(=O)C[N+](C)(C)CCCCCOc1cc(C)ccc1C(C)C.[Br-] |  | 4 | 16 |  |  | 16 |  | 128 |  | 32 |  |  |  | 8 |  |  |
| CCn1cc(C(=O)O)c(=O)c2cc(F)c(N3CCNCC3)cc21 |  |  |  |  |  |  |  |  |  |  | inactive |  |  |  |  |  |
| CCCCN(CCCC)C(=O)C[N+](C)(C)CCCCCOc1cc(C)ccc1C(C)C.[Br-] |  | 2 | 8 |  |  | 4 |  | 128 |  | 32 |  |  |  | 2 |  |  |
| CCCCCCN(CCCCCC)C(=O)C[N+](C)(C)CCCCOc1cc(C)ccc1C(C)C.[Br-] |  | > 128 | > 128 |  |  | > 128 |  | > 128 |  | > 128 |  |  |  | > 128 |  |  |
| CCCNC(=O)C[N+](C)(C)CCCOc1cc(C)ccc1C(C)C.[Br-] |  | 128 | > 128 |  |  | 128 |  | > 128 |  | > 128 |  |  |  | 64 |  |  |
| CCCCNC(=O)C[N+](C)(C)CCCOc1cc(C)ccc1C(C)C.[Br-] |  | 32 | 128 |  |  | 64 |  | > 128 |  | 128 |  |  |  | 32 |  |  |
| Cc1ccc(C(C)C)cc1OCCCCC[N+](C)(C)CC(=O)N(C(C)C)C(C)C.[Br-] |  | 8 | 8 |  |  | 8 |  | > 128 |  | 64 |  |  |  | 4 |  |  |
| CCCCCCCNC(=O)C[N+](C)(C)CCCCCOc1cc(C)ccc1C(C)C.[Br-] |  | 16 | 8 |  |  | 4 |  | 32 |  | 16 |  |  |  | 4 |  |  |
